Patent US10058534B2, “Benzothiophene derivatives and compositions thereof as selective estrogen receptor degraders” (NOVARTIS AG, priority 2013, dated 2018)
Counter-ions that a name gives are not always drawn. Like-named read-outs stand apart in the source and are kept apart here.

Tests used:
[1] = biological target: ER (endogenous, MCF7 cells) (Homo sapiens (Human), UniProt P03372); assay: ER transcription assay (MCF7 cells), ERE-luciferase reporter; assay type: cell-based; conditions: read-out: MCF7 IC50
Excerpt: ER Transcription Assay (MCF7 Cells)
The ER transcription assay is a reporter assay that is based on the ability of ER to induce transcription from a luciferase reporter gene containing estrogen response elements (EREs) in the promoter/enhancer region. When the reporter gene is transfected in MCF7 cells (containing endogenous ER), transcription is reflected by the level of luciferase expression.
A day before transfection, cells are split into a T75 flask at a cell density of 300,000 cells/mL (10 mL total) and allowed to attach overnight in a humidified CO2 incubator at 37° C.
Approximately 20 ug DNA is mixed in OptiMEM (Invitrogen) to a total volume of 650 μL. Following incubation, the OptiMEM-DNA mixture is added to the OptiMEM-Lipofectin mix and incubated for 15 minutes at 37° C. The DNA-Lipofectin mixture is then added directly to the T75 flask and the flask is returned to the incubator.
Normally, DMSO (used as a vehicle) is included to achieve a final concentration of 0.1% when added to the cells. Transfected cells are trypsinized, resuspended in DMEM/F12/10% charcoal-stripped serum and added to the 96-well plate at 25,000 cells/well in 90 μL of media. The plate is then returned to the incubator for 24 hours.
After incubation with compounds for 24 hours, Firefly and Renilla luciferase activities are measured to determine ER transcriptional activity. Media is removed from 96-well plates by decanting and blotting on paper towels.
One second total read time after a one second delay.
One second total read time after one second delay. If Firefly luciferase signal is high, Renilla assay must be done an hour after the Firefly assay due to incomplete squelching of Firefly signal.
(§1) The column titled MCF7 IC50 reports the inflection point of the inhibition of transcription in MCF7 cells as described above. Percentage ERα remaining reports the remaining ERα protein measured at 10 μM concentration of the ligand as described above. The column ERα IC50 reports the inflection point of the degradation in response to the ligand concentration.

[2] = biological target: ERα (Homo sapiens (Human), UniProt P03372); assay: ERα degradation (MCF7 cells), in-cell Western; assay type: cell-based; conditions: for IC50: inflection point of the degradation in response to ligand concentration; for ER Percentage remaining: degradation potential
Method: ERα Degradation (MCF7 Cells)
as §1

[3] = inflection point of the inhibition of transcription in MCF7 cells, 0.1 nM estradiol, 24 hours
[4] = remaining ERα protein at 10 μM ligand, MCF7 cells, relative to DMSO control

ER (endogenous, MCF7 cells), sequence (P03372 whole entry): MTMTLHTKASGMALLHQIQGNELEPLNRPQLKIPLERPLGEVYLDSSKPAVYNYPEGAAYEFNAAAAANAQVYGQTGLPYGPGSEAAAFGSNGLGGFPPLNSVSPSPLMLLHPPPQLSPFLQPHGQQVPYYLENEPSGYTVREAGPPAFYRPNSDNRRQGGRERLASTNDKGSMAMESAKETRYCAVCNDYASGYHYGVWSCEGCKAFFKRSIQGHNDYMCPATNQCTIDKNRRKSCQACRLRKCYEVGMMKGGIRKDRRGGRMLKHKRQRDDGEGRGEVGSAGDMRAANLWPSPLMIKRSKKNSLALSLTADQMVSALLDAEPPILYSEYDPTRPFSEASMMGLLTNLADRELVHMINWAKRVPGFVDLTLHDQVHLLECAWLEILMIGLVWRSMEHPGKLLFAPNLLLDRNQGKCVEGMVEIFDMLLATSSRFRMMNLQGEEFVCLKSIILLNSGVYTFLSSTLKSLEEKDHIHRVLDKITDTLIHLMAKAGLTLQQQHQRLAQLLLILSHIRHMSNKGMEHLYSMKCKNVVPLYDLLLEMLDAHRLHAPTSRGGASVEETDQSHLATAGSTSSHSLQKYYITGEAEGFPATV
ERα, sequence (P03372 whole entry): as above

| Compound | IC50 [1, 3] | IC50 ([2]; MCF7 cells) | % ERα remaining [2, 4] | also measured |
| --- | --- | --- | --- | --- |
| [C-]#[N+]c1ccccc1-c1sc2cc(O)ccc2c1Oc1ccc(/C=C/C(=O)O)cc1 [Example 24, (E)-3-(4-((6-hydroxy-2-(2-isocyanophenyl)-benzo[b]thiophen-3-yl)oxy)phenyl)acrylic acid] | 2580 nM | 33 nM | 22% | – |
| COC(=O)/C=C/c1ccc(Oc2c(-c3ccc(O)c(C)c3)sc3cc(O)ccc23)cc1 [Example 41, (E)-methyl 3-(4-((6-hydroxy-2-(4-hydroxy-3-methylphenyl)-benzo[b]thiophen-3-yl)oxy)phenyl)acrylate] | 10000 nM | – | 32% | – |
| CCOC(=O)/C=C/c1ccc(Oc2c(-c3ccc(O)cc3)sc3cc(O)ccc23)cc1OC [Example 43, (E)-ethyl 3-(4-((6-hydroxy-2-(4-hydroxyphenyl)benzo[b]thiophen-3-yl)oxy)-2-methoxyphenyl)acrylate] | 10000 nM | – | 41% | – |
| COC(=O)/C=C/c1ccc(Oc2c(-c3ccccc3)sc3cc(O)ccc23)cc1 [Example 44, (E)-methyl 3-(4-((6-hydroxy-2-phenylbenzo[b]thiophen-3-yl)oxy)phenyl)-acrylate] | 10000 nM | – | 25% | – |
| COC(=O)/C=C/c1ccc(Oc2c(-c3ccccc3C(C)C)sc3cc(O)ccc23)cc1 [Example 45, (E)-methyl 3-(4-((6-hydroxy-2-(2-isopropylphenyl)benzo[b]thiophen-3-yl)oxy)phenyl)acrylate] | 23 nM | – | 30% | – |
| CNC(=O)/C=C/c1ccc(Oc2c(-c3ccc(O)c(F)c3)sc3cc(O)ccc23)cc1 [Example 69, (E)-3-(4-((2-(3-fluoro-4-hydroxyphenyl)-6-hydroxybenzo[b]thiophen-3-yl)oxy)phenyl)-N-methylacrylamide] | 185 nM | 24 nM | 26% | – |
| CNC(=O)/C=C/c1ccc(Oc2c(-c3ccc(C(F)(F)F)cc3)sc3cc(O)ccc23)cc1 [Example 70, (E)-3-(4-((6-hydroxy-2-(4-(trifluoromethyl)phenyl)benzo[b]thiophen-3-yl)oxy)phenyl)-N-methylacrylamide] | 41 nM | 9 nM | 32% | – |
| CNC(=O)/C=C/c1ccc(Oc2c(-c3ccc(O)cc3)sc3cc(O)ccc23)cn1 [Example 71, (E)-3-(5-((6-hydroxy-2-(4-hydroxyphenyl)benzo[b]thiophen-3-yl)oxy)pyridin-2-yl)-N-methylacrylamide] | 269 nM | – | 41% | – |
| Oc1ccc(-c2sc3cc(O)ccc3c2Oc2ccc(/C=C/c3c[nH]cn3)cc2)cc1 [Example 72, (E)-3-(4-(2-(1H-imidazol-4-yl)vinyl)phenoxy)-2-(4-hydroxyphenyl)benzo[b]thiophen-6-ol] | 53 nM | 11 nM | 39% | – |
| Cn1cnc(/C=C/c2ccc(Oc3c(-c4ccc(O)cc4)sc4cc(O)ccc34)cc2)c1 [Example 73, (E)-2-(4-hydroxyphenyl)-3-(4-(2-(1-methyl-1H-imidazol-4-yl)vinyl)phenoxy)benzo[b]thiophen-6-ol] | 125 nM | 17 nM | 47% | – |
| CCCn1cnc(/C=C/c2ccc(Oc3c(-c4ccc(O)cc4)sc4cc(O)ccc34)cc2)c1 [Example 74, (E)-2-(4-hydroxyphenyl)-3-(4-(2-(1-propyl-1H-imidazol-4-yl)vinyl)phenoxy)benzo [b]thiophen-6-ol] | 58 nM | 10 nM | 32% | – |
| CN(C)Cc1ccccc1-c1sc2cc(O)ccc2c1Oc1ccc(/C=C/C(=O)O)cc1 [Example 77, (E)-3-(4-((2-(2-((dimethylamino)methyl)phenyl)-6-hydroxybenzo[b]thiophen-3-yl)oxy)phenyl)acrylic acid] | 44 nM | 1.4 nM | 15% | – |
| CC(=O)/C=C/c1ccc(Oc2c(-c3ccccc3C(C)C)sc3cc(O)ccc23)cc1 [Example 78, (E)-4-(4-((6-hydroxy-2-(2-isopropylphenyl)benzo[b]thiophen-3-yl)oxy)phenyl)but-3-en-2-one] | 6 nM | – | 72% | – |
| O=C(O)/C=C/c1ccc(Oc2c(-c3ccccc3C(F)F)sc3cc(O)ccc23)cc1 [Example 79, (E)-3-(4-((2-(2-(difluoromethyl)phenyl)-6-hydroxybenzo [b]thiophen-3-yl)oxy)phenyl)acrylic acid] | 52 nM | 4.2 nM | 17% | – |
| COCc1ccccc1-c1sc2cc(O)ccc2c1Oc1ccc(/C=C/C(=O)O)cc1 [Example 80, (E)-3-(4-((6-hydroxy-2-(2-(methoxymethyl)phenyl)benzo[b]thiophen-3-yl)oxy)phenyl)acrylic acid] | – | – | 14% | – |
| CC(C)OC(=O)/C=C/c1ccc(Oc2c(-c3ccccc3C(C)C)sc3cc(O)ccc23)cc1 [Example 81, (E)-isopropyl 3-(4-((6-hydroxy-2-(2-isopropylphenyl)benzo[b]thiophen-3-yl)oxy)phenyl)acrylate] | 320 nM | – | 29% | – |
| CC(=O)Oc1ccc2c(Oc3ccc(/C=C/C(=O)O)cc3)c(-c3ccccc3C(C)C)sc2c1 [Example 82, (E)-3-(4-((6-acetoxy-2-(2-isopropylphenyl)benzo[b]thiophen-3-yl)oxy)phenyl)acrylic acid] | 11 nM | – | 21% | – |
| COCCC(=O)Oc1ccc2c(Oc3ccc(/C=C/C(=O)O)cc3)c(-c3ccccc3C(C)C)sc2c1 [Example 83, (E)-3-(4-((2-(2-isopropylphenyl)-6-((3-methoxypropanoyl)oxy)benzo[b]thiophen-3-yl)oxy)phenyl)acrylic acid] | 15 nM | – | 13% | – |
| CC(C)c1ccccc1-c1sc2cc(OCN3C(=O)c4ccccc4S3(=O)=O)ccc2c1Oc1ccc(/C=C/C(=O)O)cc1 [Example 84, (E)-3-(4-((6-((1,1-dioxido-3-oxobenzo [d]isothiazol-2(3H)-yl)methoxy)-2-(2-isopropylphenyl)benzo[b]thiophen-3-yl)oxy)phenyl)acrylic acid] | 44 nM | – | 12% | – |
| CC(C)c1ccccc1-c1sc2cc(OC(=O)[C@@H](N)C(C)C)ccc2c1Oc1ccc(/C=C/C(=O)O)cc1 [Example 85, (S,E)-3-(4-((6-((2-amino-3-methylbutanoyl)oxy)-2-(2-isopropylphenyl)benzo [b]thiophen-3-yl)oxy)phenyl)acrylic acid hydrochloride] | – | – | – | IC50 [1]: 7 nM; % ERα remaining [2]: 12% |
| CCC(C)c1ccccc1-c1sc2cc(O)ccc2c1Oc1ccc(/C=C/C(=O)O)cc1 (centres unmarked) [Example 86, (E)-3-(4-((2-(2-(sec-butyl)phenyl)-6-hydroxybenzo[b]thiophen-3-yl)oxy)phenyl)acrylic acid] | 7 nM | 0.2 nM | 12% | – |
| Cc1cc(F)ccc1-c1sc2cc(O)ccc2c1Oc1ccc(/C=C/c2nnc(C)n2C)cc1 [Example 106, (E)-3-(4-(2-(4,5-dimethyl-4H-1,2,4-triazol-3-yl)vinyl)phenoxy)-2-(4-fluoro-2-methylphenyl)benzo[b] thiophen-6-ol] | – | – | 17% | – |
| CCc1cccc(CC)c1-c1sc2cc(O)ccc2c1Oc1ccc(/C=C/C(=O)O)cc1 [Example 130, (E)-3-(4-((2-(2,6-diethylphenyl)-6-hydroxybenzo[b]thiophen-3-yl)oxy)phenyl)acrylic acid] | – | – | 12% | – |
| CCCc1nnc(/C=C/c2ccc(Oc3c(-c4ccc(F)cc4C)sc4cc(O)ccc34)cc2)o1 [compound 47, (E)-2-(4-fluoro-2-methylphenyl)-3-(4-(2-(5-propyl-1,3,4-oxadiazol-2-yl)vinyl)phenoxy)benzo [b]thiophen-6-ol] | – | – | 43% | – |
| Cn1nnc(/C=C/c2ccc(Oc3c(-c4ccc(O)cc4)sc4cc(O)ccc34)cc2)n1 [compound 55, (E)-2-(4-hydroxyphenyl)-3-(4-(2-(2-methyl-2H-tetrazol-5-yl)vinyl)-phenoxy)benzo[b] thiophen-6-ol] | – | 34 nM | 33% | – |
| O=C(O)/C=C/c1ccc(Oc2c(-c3ccc(O)cc3)sc3cc(O)ccc23)cc1 [drawing 5] | – | – | – | ER Percentage remaining ([2]; comparison of X position): 41 Percentage |
| O=C(O)/C=C/c1ccc(Oc2c(-c3ccc(O)cc3)sc3cc(O)ccc23)cc1 [drawing 8] | – | – | – | ER Percentage remaining ([2]; comparison of linker length between phenyl and -C(O)OH): 41 Percentage |
| O=C(O)/C=C/c1ccc(-c2c(-c3ccc(O)cc3)sc3cc(O)ccc23)cc1 [reference compound] | – | – | – | ER Percentage remaining ([2]; comparison of X position): 76 Percentage |
| O=C(O)/C=C/c1ccc(C(=O)c2c(-c3ccc(O)cc3)sc3cc(O)ccc23)cc1 [reference compound] | – | – | – | ER Percentage remaining ([2]; comparison of X position): 60 Percentage |
